System: CD4+ T cells in CNS of EAE mice
Assay: Flow cytometry of CNS T cells of treated EAE mice
Format: in vivo, mouse
Conditions: 100 μg i.v.
Description: Figure 5 Dleu2-17aa attenuates EAE by promoting Treg cells. (A) Schematic diagram of MOG-induced EAE and treatment strategies with Dleu2-17aa, scrPEP, and Glatiramer. Mice received 100 μg of Dleu2-17aa or scrPEP every 3 days via i.v. injection or 150 μg of Glatiramer every day for seven times via s.c. on days 9 to 15. (B) Clinical scores were examined daily from day 9 using a scoring system ranging from 0 (no sign) to 5 (complete paralysis or dead). The x-axis represents experimental days, and the y-axis represents symptom severity (n = 8–9). (C) Representative Luxol fast blue (LFB) and hematoxylin and eosin staining (H&E) staining sections for treated EAE spinal cord. Scale bars: 100 μm. (D) Histopathology scores of inflammations and demyelination in treated EAE mice spinal cord using a scoring system ranging from 0 (no inflammatory cells or demyelination) to 4 (extensive inflammatory cells infiltration or confluent foci of demyelination) (n = 5–8). (E) Representative dot plots (left panel) and frequency (right panel) of CD44^hiCD62L^lo activated T cells, Foxp3^+ Treg cells, IL-17A^+ Th17 cells, and IFN-γ^+ Th1 cells gated on CD4^+ T cells in the spleen 14 days post immunization of MOG (n = 3). (F) Representative dot plots and frequency of CD4^+, Foxp3^+ Treg cells, and IFN-γ^+ Th1 cells gated on CD4^+ T cells in the CNS 14 days post immunization of MOG (n = 3). Data information: n indicates biological replicate. Error bars are mean ± SEM; *P < 0.05, **P < 0.01, and ***P < 0.001, n.s. indicates no significant difference. Statistical analysis was by two-way ANOVA for (B) and two-tailed Student’s t-test for (D–F). Source data are available online for this figure. TEXT PRINTED IN THE PICTURE: (E) scrPEP: Spleen: CD62L-PE-DF594 / CD44-PE: 78.2; Spleen: Foxp3-PE / CD4-APC: 7.38; Spleen: IFN-γ-Percp-cy5.5 / Il-17A-FITC: 4.67; Spleen: IFN-γ-Percp-cy5.5 / Il-17A-FITC: 0.18; Spleen: IFN-γ-Percp-cy5.5 / Il-17A-FITC: 94.7; Spleen: IFN-γ-Percp-cy5.5 / Il-17A-FITC: 0.44 | (E) Dleu2-17aa: Spleen: CD62L-PE-DF594 / CD44-PE: 37.2; Spleen: Foxp3-PE / CD4-APC: 12.9; Spleen: IFN-γ-Percp-cy5.5 / Il-17A-FITC: 2.83; Spleen: IFN-γ-Percp-cy5.5 / Il-17A-FITC: 0.26; Spleen: IFN-γ-Percp-cy5.5 / Il-17A-FITC: 96.1; Spleen: IFN-γ-Percp-cy5.5 / Il-17A-FITC: 0.79 | (F) scrPEP: CNS: FSC / CD4-APC: 9.03; CNS: Foxp3-PE / CD4-APC: 8.47; CNS: IFN-γ-Percp-cy5.5 / Il-17A-FITC: 22.9; CNS: IFN-γ-Percp-cy5.5 / Il-17A-FITC: 2.00; CNS: IFN-γ-Percp-cy5.5 / Il-17A-FITC: 69.7; CNS: IFN-γ-Percp-cy5.5 / Il-17A-FITC: 5.44 | (F) Dleu2-17aa: CNS: FSC / CD4-APC: 3.33; CNS: Foxp3-PE / CD4-APC: 15.5; CNS: IFN-γ-Percp-cy5.5 / Il-17A-FITC: 13.9; CNS: IFN-γ-Percp-cy5.5 / Il-17A-FITC: 2.65; CNS: IFN-γ-Percp-cy5.5 / Il-17A-FITC: 77.7; CNS: IFN-γ-Percp-cy5.5 / Il-17A-FITC: 5.79 DOUBTS OF THE COPYIST ABOUT THIS PICTURE: Panels E and F: the gate and quadrant numbers in the dot plots are printed with no measure or unit; the tissue heading and the axis labels of each plot are written in front of them. For the quadrant plots the order is upper left, upper right, lower left, lower right. / Panels E and F: the gate numbers are in small print, so 3, 5, 6, 8 and 9 are best readings: E scrPEP 78.2, 7.38, 4.67, 0.18, 94.7; E Dleu2-17aa 37.2, 12.9, 2.83, 0.26, 96.1, 0.79; F scrPEP 9.03, 8.47, 22.9, 69.7, 5.44; F Dleu2-17aa 3.33, 15.5, 13.9, 2.65, 5.79.
For active EAE immunization, myelin oligodendrocyte glycoprotein peptide (MOGp35–55, […], GenScript) was emulsified in complete Freund adjuvant (Sigma-Aldrich). An equivalent of 300 μg MOG peptide was injected per mouse subcutaneously followed by 200 ng of pertussis toxin (Merck-Calbiochem) injection intravenously on day 0 and day 2 of immunization. […]

## ARGPARRMRGGRRRRLR [scrPEP, scrambled control peptide of Dleu2-17aa]
Replicate 1
  CD4+ / Live Cells(%): 9.03%
  Foxp3+/ CD4+ Cells (%): 8.94%
  IFN-γ+/ CD4+ Cells(%): 22.8%
Replicate 2
  CD4+ / Live Cells(%): 10.1%
  Foxp3+/ CD4+ Cells (%): 9.11%
  IFN-γ+/ CD4+ Cells(%): 22.9%
Replicate 3
  CD4+ / Live Cells(%): 9.74%
  Foxp3+/ CD4+ Cells (%): 8.47%
  IFN-γ+/ CD4+ Cells(%): 23.8%

Source: PMC10933344, “A lncRNA Dleu2-encoded peptide relieves autoimmunity by facilitating Smad3-mediated Treg induction” (EMBO Reports, 2024)
